Experimental findings from the METLIN SMRT retention time set (Domingo-Almenara et al. 2019) are described below.

A short description of the series: gradient 5% acetonitrile 3 min, to 50% in 2 min, to 85% in 15 min, held 3 min, 100 µL/min. The following applies: column: Zorbax Extend-C18 2.1 x 50 mm; eluents: water / acetonitrile, 0.1% formic acid. The procedure, abridged:
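Pure standards were analyzed in mixtures of ~100 molecules using HPLC coupled to a quadrupole time-of-flight mass spectrometer, in both positive and negative ionization mode. Separation used a Zorbax Extend-C18 column (2.1 × 50 mm, 1.8 μm) at 100 μL/min, with water and acetonitrile each containing 0.1% formic acid. Dead and dwell volumes were 40 μL and 900 μL, and data were collected over 3 months. Retention time was read from computationally picked adduct peaks, each inspected manually.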
Compound `CCN1CCN(c2cc(C)c3cc(NC(=O)c4ccc(Br)cc4)ccc3n2)CC1` showed an RP-LC retention time of 610 s. `O=C(O)c1nnn(-c2cccc(Cl)c2)c1-c1ccncc1`: the RP-LC retention time came out at 657 s. `O=C(NCC1CCOCC1)Nc1ccc(Cl)cc1F` registered an RP-LC retention time of 764 s.

`CC(=O)N1CCC(Cc2noc(C3CC3)n2)C1` (centres undefined): the RP-LC retention time amounted to 625 s. The result for `Cc1ccccc1N(C)C(=O)C1CCCN(c2ncnc3c2nc2n3CCCCC2)C1` (centres undefined) reads 870 s.

With `CC(C)Cn1c(CCNC(=O)c2ccccc2)nc2cccnc21`, the RP-LC retention time came to 683 s. The compound `CCOc1cc(-c2ccc(F)cc2)nc2ccc(C(=O)N3CCN(c4ccccn4)CC3)cc12` yielded an RP-LC retention time of 624 s. `COCCN1C(=O)Cc2ccccc2C1C(=O)NCc1ccco1` (centres undefined) displayed an RP-LC retention time of 676 s. In turn, `Cc1ccc(-n2nc3c(=O)n(CCCC(=O)N4CCCC4)nc(C)c3c2C)cc1` showed an RP-LC retention time of 748 s. The result for `Cc1cc(C)c2c(N)c(C(=O)c3ccccn3)sc2n1` reads 739 s. The value for `CC(C)Cc1nnc(NC(=O)C2CCN(C(=O)c3cccc(F)c3)CC2)s1` was 780 s; that for `CCOc1ccc(C(=O)N2CCN(c3ccc(-c4nc(CC)cs4)cn3)CC2)cc1` was 987 s.

For the compound `O=C(Nc1cc(F)ccc1F)c1ccc(=O)n(Cc2cccc(C(F)(F)F)c2)c1`, the RP-LC retention time came to 861 s. The result for `Cc1cc(F)ccc1S(=O)(=O)NCC(c1ccsc1)N1CCOCC1` (centres undefined) reads 572 s; that for `CC(=O)c1ccc(S(=O)(=O)NCCC2CCN(C(=O)c3ccccc3)CC2)cc1`, 773 s; that for `COc1ccccc1CCC(=O)N1CCC[C@@H]1C(=O)NCCc1csc(-c2ccccc2)n1`, 891 s. In the case of `COc1ccc(-c2ncc3c(n2)CCN(S(=O)(=O)c2ccc(Cl)s2)C3)cc1`, the RP-LC retention time is 1140 s. In turn, `COc1ccc(NC(=O)C2CC(=O)N(c3ccc4oc(C)nc4c3)C2)cc1Cl` (centres undefined) yielded an RP-LC retention time of 742 s.

Turning to `Cc1ccc(Cl)cc1N1CCN(c2cc(C(=O)O)c3cc(NC(=O)CC(C)C)ccc3n2)CC1`, the RP-LC retention time came to 828 s. The value for `COCCOc1ccc2c(c1)ncn2-c1ccc2cccc(N3CCC(N)CC3)c2n1` was 645 s; that for `O=C(Cc1cccc(F)c1)NC(c1ccccc1)c1nnc(N2CCCC2)o1` (centres undefined) was 771 s; that for `COc1ccc(-c2nnc(-c3cccnc3NCCCN3CCCC3=O)o2)cc1` was 746 s.

On to `Cc1csc(-c2cc(S(=O)(=O)Nc3ccc(F)cc3)cn2CC(=O)N2CCCC2)n1`, for which the RP-LC retention time is 853 s. The value for `COc1ccc(-c2noc(C3CCCN3C(=O)c3ccccc3F)n2)cc1` (centres undefined) was 952 s; that for `Cc1c(Cl)cccc1NC(=O)C(C)C1CCN(C(=O)Nc2ccccc2)CC1` (centres undefined) was 860 s. The compound `CC1CCCCN1CCNC(=O)c1nnc(-c2ccc(S(=O)(=O)N(C)C)cc2)o1` (centres undefined) yielded an RP-LC retention time of 620 s. The value for `CC1(C)Cc2cccc(OCC(=O)NCC3CCN(S(C)(=O)=O)CC3)c2O1` was 715 s; that for `CCOC(=O)Cc1csc(NC(=O)CSc2nc(C)nc3sc4c(c23)CCC4)n1` was 998 s. The result for `CCOCCCNC(=O)C(C)n1nc(C)c2c(C)n(-c3ccccc3)nc2c1=O` (centres undefined) reads 721 s; that for `O=C(NCCC1=CCCCC1)C1CCN(c2cncnc2N2CCOCC2)CC1`, 656 s. `Cc1cnc(C2CN(Cc3cccc(F)c3)C2)n1Cc1ccccc1`: the RP-LC retention time was 595 s. Consider `COc1ccc(N2CCN(c3cc(SCC(=O)NCCC4=CCCCC4)ncn3)CC2)cc1`, for which the RP-LC retention time was found to be 1080 s. In turn, `Cc1noc(C)c1CC(=O)NCc1cc(-c2ccc3c(c2)OCO3)on1` displayed an RP-LC retention time of 689 s. As to `CCOC(=O)C(=O)NCc1nc(COc2ccc(OC)cc2)no1`, the RP-LC retention time is 716 s. For `CCOC(=O)c1nn(-c2ccc(C)cc2)c(=O)cc1NC(=O)c1cc(Cl)ccc1OC`, the RP-LC retention time came out at 1140 s.

For the compound `Cc1ccc(C(=O)N2CCC(C(=O)N3CCCCCCNC(=O)CC3)CC2)s1`, the RP-LC retention time was found to be 668 s. For `CCn1cc(-c2nc(C(=O)Nc3ccccc3Cl)cs2)c2cccnc21`, the RP-LC retention time was 1330 s.

On to `Cc1cc2nn(CC(=O)Nc3ccccc3C)c(=O)n2c(-c2ccc(F)cc2)n1`, for which the RP-LC retention time is 796 s. `Cc1oc(-c2[nH]ncc2C(=O)N(C)C)cc1S(=O)(=O)Nc1ccc(F)cc1Cl` had an RP-LC retention time of 696 s. The result for `OCCNCc1ccc(-c2ccc(Cl)cc2)o1` reads 966 s. The value for `CC1CN(c2ccc(Cl)cc2)c2nc3c(c(=O)n(CCN4CCOCC4)c(=O)n3C)n2C1` (centres undefined) was 686 s. With `COc1cc(NC(=O)Cn2nc3n(c2=O)CCCCC3)cc(OC)c1`, the RP-LC retention time turned out to be 704 s. The result for `COc1cc(NC(=O)Cn2c(C)cc(-c3nnc(C4CC4)o3)c2C)cc(OC)c1` reads 829 s; that for `Cc1cccnc1NC(=O)C1CCN(S(=O)(=O)c2cc(C(=O)N3CCOCC3)cs2)CC1`, 606 s. The result for `O=C(c1cc(-c2ccco2)on1)N1CCn2c1nc1ccccc12` reads 621 s; that for `Cc1ccc(CNC(=O)c2cc3sc(Cl)cc3n2C)cc1`, 1110 s. The value for `CCOC(=O)c1cccc(NC(=O)Cc2csc3nc(-c4ccc(OC)c(OC)c4)cn23)c1` was 761 s. In the case of `CN(C)CCCNC(=O)C1CCN(c2nc3ccc(-c4ccccc4F)nc3s2)CC1`, the RP-LC retention time was 649 s. Turning to `COC(=O)c1cnn(-c2ccc(C(=O)N3CCc4ccccc43)cc2)c1N`, the RP-LC retention time is 768 s. As to `CCc1ccc(NC(=O)CSc2ccc(N3CCC(C(=O)NC(C)C)CC3)nn2)cc1`, the RP-LC retention time amounted to 680 s. Take `COc1ccc(-c2cn3cccnc3n2)cc1NC(=O)c1c(F)cccc1F`: the RP-LC retention time turned out to be 653 s. `Cc1cc(=O)n(CC(=O)Nc2cccc(F)c2)c(N)n1` gave an RP-LC retention time of 603 s. The result for `CCOC(=O)c1cccc(N2C=C(C(=O)N3CCCC3)S(=O)(=O)c3ccccc32)c1` reads 802 s. The compound `CS(=O)(=O)N1CC(F)(F)C[C@H]1c1nc(-c2ccccc2)no1` yielded an RP-LC retention time of 858 s. Compound `O=C(c1ccc(OCC2CCCN(C(=O)C3CCCC3)C2)cc1)N1CCOCC1` (centres undefined) came in with an RP-LC retention time of 750 s. The value for `CCS(=O)(=O)N1CC(=O)N(c2ccccc2C)C(C)(C(=O)NC2CCCCCCC2)C1` (centres undefined) was 951 s; that for `CCn1cc(CN2CCCC(Cn3cc(COC)nn3)C2)c2cc(OC)ccc21` (centres undefined) was 637 s; that for `Cc1cc2c(cc1NC(=O)c1ccco1)n(C)c(=O)c(=O)n2C` was 614 s. The value for `COC(=O)c1ccc2c(=O)n(CCc3ccccc3)c(N3CCC(C)CC3)nc2c1` was 1380 s; that for `COc1ccc(OC)c(NC(=O)N2CCC(n3c(C(F)(F)F)nc4cccnc43)CC2)c1` was 895 s; that for `COCCNc1c(-c2ccccc2)nc2sc(C(=O)N(C)C)c(C)n12` was 643 s. With `Cc1ccc(-n2nnc(C(=O)O)c2C)c(F)c1`, the RP-LC retention time turned out to be 705 s. The compound `CCN(CC)CCNC(=O)Cn1nc(-c2ccc(Cl)cc2)ccc1=O` gave an RP-LC retention time of 624 s.

Compound `Cc1cccn2cc(-c3cccc(NS(=O)(=O)c4ccc(C(C)(C)C)cc4)c3)nc12` yielded an RP-LC retention time of 792 s. As for `CCCN(CCC)C(=O)Cn1nc(-c2nc(-c3ccc(C)cc3)no2)c2ccccc21`, the RP-LC retention time was 859 s. The value for `CCn1nc(CNC(=O)C(C)Oc2ccccc2OC)c2ccccc21` (centres undefined) was 810 s. The result for `COc1ccc(C)cc1NC(=O)CCc1cccc2[nH]ccc12` reads 942 s; that for `O=C(Cn1c2ccccc2n2c(=O)cc(-c3ccc(F)cc3)nc12)NCc1ccco1`, 912 s. The result for `CCNC(=O)c1nnn(-c2cc(C(F)(F)F)ccc2Cl)c1-c1cccnc1` reads 796 s; that for `COc1ccccc1C(=O)NC1(C(F)(F)F)C(=O)N(C2CCCC2)C(C)=C1C(C)=O` (centres undefined), 1000 s; that for `O=c1ccc(-c2ccc3c(c2)OCO3)nn1Cc1nc(-c2cccc(Cl)c2)no1`, 1040 s. Compound `CN1CCCc2cc(C(CNC(=O)C(=O)Nc3ccc4c(c3)OCO4)N3CCCC3)ccc21` (centres undefined) registered an RP-LC retention time of 714 s. Compound `Cc1cccc(N2CCN(C(=O)C3CCN(C(=O)C4Sc5ccccc5NC4=O)CC3)CC2)c1C` (centres undefined) had an RP-LC retention time of 918 s. The value for `COc1ccc(OC)c(NC(=O)c2[nH]c(C)c(S(=O)(=O)N3CCCCC3)c2C)c1` was 1020 s. The result for `Cc1scc2nc(C3CCC3)nc(N3CCC(C(=O)NCc4ccc(N(C)C)cc4)CC3)c12` reads 604 s. With `CCc1ccc(CNC(=O)c2cn3c(n2)CCCC3)cc1`, the RP-LC retention time stood at 646 s. Turning to `O=C(c1cc(=O)c(OCc2ccc(F)cc2)co1)N1CCN(c2ncccn2)CC1`, the RP-LC retention time is 696 s.

Turning to `COc1cccc(N2CCN(CC(=O)N3CCC(C(N)=O)CC3)CC2)c1`, the RP-LC retention time amounted to 582 s. The value for `O=C(Nc1cccc2c(=O)cc(-c3nn[nH]n3)oc12)c1ccc(OCCCCc2ccccc2)cc1` was 1180 s.
